Structures can show the parent of a compound that is named as a salt.
Biological target: T1, human GPR40 (Homo sapiens, UniProt O14842)
T1 construct: expressed in transfected cells; host or cells: CHO cell line stably expressing human GPR40
Test: Receptor function modulating action (agonist action) against human-derived GPR40: intracellular calcium change by FLIPR in CHO cells stably expressing human GPR40
Format: cell-based
Description: Receptor Function Modulating Action (Agonist Action) against Human-Derived GPR40 For determination of agonist activity, CHO cell line that stably expressed human GPR40 was used. […] The cells cultured to nearly confluent were rinsed with PBS (Invitrogen) on the previous day of the assay, peeled off with EDTA ([…], Wako Junyaku) and recovered by centrifugation. The number of the obtained cells was counted, and the cells were diluted such that 3×10^5 cells were contained per 1 mL of the medium, dispensed to a 96 well black clear bottom plate (coaster) by 100 μL per well and cultured overnight in a CO2 incubator. Various test compounds were added to the CHO cells thus prepared, and the changes in the intracellular calcium concentration were measured using FLIPR (Molecular Device). The below-mentioned pre-treatment was applied to measure changes in the intracellular calcium concentration by FLIPR. […] A fluorescence dye solution was prepared by adding 500 μM probenecid dissolved in 1N NaOH to the assay buffer to a final concentration of […], and adding the solution (10 mL) to 1 vial of component A (Molecular Device). One day before the assay, the medium of CHO cells re-plated on a 96 well black clear bottom plate was removed, and the cells were washed with D-PBS(−). […] Then, the fluorescence dye solution was dispensed by 100 μL per well, and the cells were cultured in a CO2 incubator for 1 hr to allow uptake of the fluorescence dye by the cells. During this period, the test compound was diluted to a given concentration with the assay buffer, and dispensed to a polypropylene 96-well plate (sample plate) by 100 μL. The cell plate and the sample plate were simultaneously set on FLIPR. After the above-mentioned pre-treatment, variation in the intracellular calcium concentration after addition of various test compounds (50 μL) was measured by FLIPR.

[1] = agonist activity of each compound at 1 μM, relative to the activity of 10 μM γ-linolenic acid as 100%, CHO cell line stably expressing human GPR40

T1 sequence (O14842 whole entry): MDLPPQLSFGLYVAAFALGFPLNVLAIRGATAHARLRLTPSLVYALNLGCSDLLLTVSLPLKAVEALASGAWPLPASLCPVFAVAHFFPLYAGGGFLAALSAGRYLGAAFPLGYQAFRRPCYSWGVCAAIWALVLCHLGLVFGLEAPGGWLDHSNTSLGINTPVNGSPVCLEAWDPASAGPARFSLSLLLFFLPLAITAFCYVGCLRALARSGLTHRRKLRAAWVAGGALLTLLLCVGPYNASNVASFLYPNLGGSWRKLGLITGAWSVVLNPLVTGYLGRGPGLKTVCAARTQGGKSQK

Compound CC(C)CCN(Cc1ccc(COc2ccc(C3CC3C(=O)O)cc2)cc1)c1nc(-c2ccc(C(F)(F)F)cc2)cs1 (centres unmarked) [Example 9] has a Relative activity value [1] of 99%.
Compound CCOCCOc1cc(C)c(-c2cccc(COc3ccc(C4CC4C(=O)O)cc3)c2)c(C)c1 (centres unmarked) [Example 3, 2-(4-{[4′-(2-ethoxyethoxy)-2′,6′-dimethylbiphenyl-3-yl]methoxy}phenyl)cyclopropanecarboxylic acid calcium salt] has a Relative activity value (agonist activity of each compound at 1 μM, relative to the activity of 10 μM γ-linolenic acid as 100%, CHO cell line stably expressing human GPR40, calcium salt) of 103%.
CCOCCOc1cc(C)c(-c2cccc(COc3ccc(C4CC4C(=O)O)cc3)c2)c(C)c1 (centres unmarked) [Example 2, 2-(4-{[4′-(2-ethoxyethoxy)-2′,6′-dimethylbiphenyl-3-yl]methoxy}phenyl)cyclopropanecarboxylic acid] gave a Relative activity value [1] of 111%.
Cc1cc(OCC2(C)COC2)cc(C)c1-c1cccc(COc2ccc(C3CC3C(=O)O)cc2)c1 (centres unmarked) [Example 7, 2-[4-({2′,6′-dimethyl-4′-[(3-methyloxetan-3-yl)methoxy]biphenyl-3-yl}methoxy)phenyl]cyclopropanecarboxylic acid] gave a Relative activity value [1] of 119%.
Compound CCCN(Cc1ccc(COc2ccc(C3CC3C(=O)O)cc2)cc1)c1nc(-c2ccc(C(F)(F)F)cc2)cs1 (centres unmarked) [Example 11, 2-[4-({4-[(propyl{4-[4-(trifluoromethyl)phenyl]-1,3-thiazol^-2-yl}amino)methyl]benzyl}oxy)phenyl]cyclopropanecarboxylic acid] has a Relative activity value [1] of 114%.
Compound Cc1cc(OC2CCS(=O)(=O)CC2)cc(C)c1-c1cccc(COc2ccc(C3CC3C(=O)O)cc2)c1 (centres unmarked) [Example 5, 2-[4-({4′-[(1,1-dioxidotetrahydro-2H-thiopyran-4-yl)oxy]-2′,6′-dimethylbiphenyl-3-yl}methoxy)phenyl]cyclopropanecarboxylic acid] has a Relative activity value [1] of 108%.
O=C(O)C1CC1c1ccc(OCc2cccc(Oc3ccccc3)c2)cc1 (centres unmarked) [Example 13, 2-{4-[(3-phenoxybenzyl)oxy]phenyl)cyclopropanecarboxylic acid] was tested, and the Relative activity value [1] was 109%.
With CCCCC/C=C\C/C=C\C/C=C\CCCCC(=O)O [γ-linolenic acid, reference compound] the Relative activity value (reference: activity of 10 μM γ-linolenic acid (GPR40 agonist) set as 100%, CHO cell line stably expressing human GPR40) was 100%.

Source: US8153694B2, “Cyclopropanecarboxylic acid compound” (Takeda Pharmaceutical Company Limited, priority 2005, dated 2012)
